In test [1] the test system is prostate metastatic cancer line. Details: method as in PMID 21549092. The conditions noted are these: cited from earlier work.
A further test deals with HOC/ADR. The test can be described thus: Sensitization of MDR cell line to Adriamycin. Format: cell-based, human. The conditions noted are these: for Fold change: IC50 of Adriamycin / IC50 of Adriamycin with IC10 dose of compound; for increase of the IC50 of Adriamycin: IC10 dose of compound. As to the method: To determine the sensitization potential of compounds, HOC/ADR and MCF-7/PAX were used. Based on the cytotoxic potential of the compounds against several cancer and non-cancerous cell lines (Table 1), the concentrations of applied compounds were adjusted. IC10 values was considered as the concentrations, which should not decrease the cell viability under 90%. After the addition of compounds, Adriamycin (concentration range 0.1–20 µM) and paclitaxel (concentration range 0.1–10 µM) were added to HOC/ADR and MCF-7/PAX, respectively. The sensitization potential of the compounds was determined as the ratio of the IC50 of cytostatic agent (Adriamycin/paclitaxel) to the IC50 of cytostatic agent affected by the compound in concentration corresponding to the IC10 value. Fold change greater than 1 indicated synergic effect of cytostatic agent and the tested compound.
After that, the plates were washed 1× with PBS and fresh DMEM medium supplemented with tested compounds at final concentration corresponding their IC10 value was added, except for positive control wells. Subsequently, Adriamycin (concentration range 0.1–20 µM) or paclitaxel (concentration range 0.1–10 µM) was added to the appropriate cell line for 72 h. After incubation, the cells were washed 1× with PBS and the resazurin solution (0.03 mg/mL) was added to evaluate the cell viability as described above. IC50 values of cytostatics were calculated for both the control and compounds; a fold change was counted up. When this fold change is higher than 1 indicates a synergism between the tested cytostatic agent and the compound, while a fold change lower than 1 means an antagonism. Fold change=IC50value of cytostatic treated cells only/IC50value of cytostatic treated cells in addition of the compound

The test system of test [2] is HOC (human parental ovarian adenocarcinoma, A2780). The test can be described thus: Cytotoxic activity, 2D, resazurin, 72 h. The conditions noted are these: for IC50: 2D, 72 h, mean ± SEM, n=3, read-out: HOC IC50; for SI HEK293/HOC: IC50 HEK293 / IC50 HOC. In kind it is cell-based. How it is done:
(§1) The cytotoxic potential of selenoesters was tested on several cancer cell lines—HOC (human parental ovarian adenocarcinoma, HOC, A2780, Sigma-Aldrich), HOC/ADR (sub-line resistant to Adriamycin, A2780/ADR, Sigma-Aldrich), MCF-7 (human breast adenocarcinoma, ATCC®, HTB-22TM), MCF-7/PAX (resistant sub-line established by gradual adaptation of parental cells to increased concentration of paclitaxel; kindly provided by Division of Cell and Molecular Biology, Third Faculty of Medicine, Charles University, Czech Republic) and on one non-cancerous cell line—HEK293 (human embryonic kidney cell line, Leibniz Institute, DSMZ-German Collection of Microorganisms and Cell Cultures GmbH). All mentioned cell lines were authenticated using short tandem repeat (STR) profiling. Cell lines were cultivated in DMEM medium (10% FBS, 1× antibiotic antimycotic solution), except for HEK293 cell line which was cultivated without antibiotics. In case of the resistant cell lines, the medium was supplemented with a required concentration of cytostatics to maintain resistance (HOC/ADR—100 nM Adriamycin; MCF-7/PAX—300 nM paclitaxel). All cells were cultivated in a CO2 incubator (5% CO2, 37 °C, Thermo Fisher Scientific).
(§2) For the experiment, the cells at passage number 5–20 were seeded at a 1 × 10^5 cells/mL concentration into 96-well plates to 100 µL final volume. The final concentration range of the compounds was 0.63–20 µM. After an incubation of 72 h, the plates were washed 1× with PBS and resazurin solution (0.03 mg/mL in 1× PBS) was added. After 1 h of incubation, the fluorescence signal was recorded (ex./em. 560/590 nm).
(§3) The selectivity index (SI) was determined as the ratio of IC50 value for the non-cancerous cells to IC50 for the cancer cell line. For resistant cell lines, the collateral sensitivity (CS) was calculated as the ratio of IC50 value in sensitive tumour cells to IC50 in the resistant cancer cell line. In both cases, the selectivity is considered as: (1) strongly selective when SI or CS value is above 6, (2) moderately selective when SI or CS is between 3 and 6, (3) slightly selective when SI or CS is between 1 and 3 and (4) non-selective when SI or CS is less than 1[23].
On the technique in general: Alamar Blue is a resazurin reagent that responds to reducing activity.

The subject of test [3] is MCF-7 (human breast adenocarcinoma). The test can be described thus: Cytotoxic activity, 2D, resazurin, 72 h. In kind it is cell-based. The conditions noted are these: for IC50: Homo sapiens, MCF7, 2D, 72 h, mean ± SEM, n=3, read-out: MCF-7 IC50; for SI HEK293/MCF-7: IC50 HEK293 / IC50 MCF-7. As to the method: as §1, §2, §3
Test [4] relates to HEK293 (human embryonic kidney cell line). The test can be described thus: Cytotoxic activity, non-cancerous cell line, resazurin, 72 h. In kind it is cell-based. The conditions noted are these: Homo sapiens, HEK293; 72 h, mean ± SEM, n=3. How it is done: as §1, §2, §3
Test [5] concerns MCF-7/PAX (paclitaxel-resistant sub-line). The test can be described thus: Cytotoxic activity, 2D, resazurin, 72 h. Format: cell-based, human. The conditions noted are these: for IC50: Homo sapiens, MCF7, 2D, 72 h, mean ± SEM, n=3, read-out: MCF-7/PAX IC50; for SI HEK293/MC7-7/PAX: IC50 HEK293 / IC50 MCF-7/PAX; for CS (collateral sensitivity index): IC50 MCF-7 / IC50 MCF-7/PAX. How it is done:
as §1, §2, §3

The test system of test [6] is HOC/ADR (sub-line resistant to Adriamycin, A2780/ADR). As to the kind of experiment: Cytotoxic activity, 2D, resazurin, 72 h. Format: cell-based, human. The note with it: for IC10 / IC50: Homo sapiens, A2780 ADR, 72 h; for IC10: HOC/ADR, concentration that should not decrease viability under 90%, read-out: IC10 of compounds; for IC50: 2D, mean ± SEM, n=3, read-out: HOC/ADR IC50; for SI HEK293/HOC/ADR: IC50 HEK293 / IC50 HOC/ADR; for CS (collateral sensitivity index): IC50 HOC / IC50 HOC/ADR. How it is done: as §1, §2, §3

Another test relates to HOC. The test can be described thus: Oxidation stress (ROS), Muse Oxidative Stress Kit. Format: cell-based, human. The conditions noted are these: 1 µM (DMSO 5% V/V), 24 h. How it is done:
Selenoesters (K3, K4, K7) were tested for their ability to generate reactive oxygen species (ROS). HOC was exposed to selenoesters in concentration of 1 µM for 24 h. DMSO (5% V/V) was used as a positive control. The required volume of DMSO (1% V/V) was added to untreated cells. ROS are essential biomolecules in cellular regulation as a part of the defence mechanisms. On the other hand, their participation in cell signalling may affect apoptosis and other death pathways. In the assay, dihydroethidium (DHE) reacts with superoxide anions by forming DNA-binding fluorophore ethidium bromide. Based on fluorescence, the cell population can be distinguished into ROS negative and ROS positive cells containing oxygen radicals.
To determine the oxidation stress potential of selected selenoesters, HOC were seeded into 24-well plates at a density 2 × 10^5 cells/mL for 24 h according to the above mentioned procedure. Afterwards, the plates were washed 1 ×with PBS and fresh DMEM medium containing compounds K3, K4, K7 (final concentration—1 µM) was added for 24 h, except for the positive and negative control. […] as the oxidation stress inductor. After incubation, the cells were washed 1× with PBS and released from the surface by using a trypsin–EDTA solution. After trypsin inhibition by medium addition, the cell suspensions were centrifuged (100×g, 5 min, 25 °C), supernatants were removed, and cell pellets resuspended in 1× assay buffer. All reagents were prepared immediately before use. Afterwards, 10 µL of the cell suspension were mixed with 190 µL of working solution (Muse Oxidative stress reagent) and stained for 30 min at 37 °C. Subsequently, the […] were analysed by Guava Muse Cell Analyzer. Oxidation stress detection was performed following the instructions provided by the manufacturer.

The source of these data is article PMC9023544, “Ketone-selenoesters as potential anticancer and multidrug resistance modulation agents in 2D and 3D ovarian and breast cancer in vitro models” (Scientific Reports, 2022).

Read-outs that look alike come from different tables or passages of the source.

By IC10 is commonly meant the point of the concentration-response curve where the effect stands at 10%.

Consider `CC(=O)O[C@@]12CO[C@@H]1C[C@H](O)[C@@]1(C)C(=O)[C@H](O)C3=C(C)[C@@H](OC(=O)[C@H](O)[C@@H](NC(=O)OC(C)(C)C)c4ccccc4)C[C@@](O)([C@@H](OC(=O)c4ccccc4)[C@H]21)C3(C)C` [docetaxel], for which the growth inhibition in test [1] was 22%.

With `O=[Se]([O-])[O-].[Na+].[Na+]` [sodium selenite], the growth inhibition in test [1] is listed as 24%.

As to `CC(=O)C[Se]C(=O)c1ccccc1F` [K2], the Fold change result with HOC/ADR is given as “(1.2 ± 0.0)×”. In test [2], the IC50 stood at 800 ± 100 nM and the “SI HEK293/HOC” value is 1.6 ± 0.1. Also, in test [2] (Homo sapiens, A2780, 72 h), the IC50 is less than 1000 nM. For the same compound, in test [3], the IC50 stood at 1900 ± 100 nM and the “SI HEK293/MCF-7” value was found to be 0.7 ± 0.1. The same compound gave an IC50 in test [4] of 1200 ± 100 nM. In addition, in test [5], the IC50 came to 1900 ± 100 nM, the “SI HEK293/MC7-7/PAX” value amounted to 0.6 ± 0.1 and the “CS (collateral sensitivity index)” value was 1.0 ± 0.1. Moreover, in test [6], the IC10 came to 1000 nM, the IC50 came out at 2400 ± 100 nM, the “SI HEK293/HOC/ADR” value came out at 0.5 ± 0.0 and the “CS (collateral sensitivity index)” value was found to be 0.3 ± 0.0.

For the compound `CC(=O)C[Se]C(=O)c1cc(F)c(F)cc1F` [K8], in the test on HOC/ADR, the Fold change entry is “(1.1 ± 0.1)×”. The IC50 in test [2] (Homo sapiens, A2780, 72 h) was found to be 2100 ± 100 nM. For the same compound, in test [2], the “SI HEK293/HOC” value is on record as 0.9 ± 0.1. For the same compound, in test [3], the IC50 was 2600 ± 400 nM and the “SI HEK293/MCF-7” value was 0.8 ± 0.1. In test [4], this compound displayed an IC50 of 2000 ± 200 nM. Besides, in test [5], the “collateral sensitivity against paclitaxel-resistant breast carcinoma (in words)” value is recorded as “slight collateral sensitivity”, the IC50 was 2000 ± 100 nM, the “SI HEK293/MC7-7/PAX” value is 1.0 ± 0.2 and the “CS (collateral sensitivity index)” value is 1.3 ± 0.3. Further, in test [6], the IC10 is 3000 nM, the IC50 is 2700 nM, the “SI HEK293/HOC/ADR” value is listed as 0.7 ± 0.0 and the “CS (collateral sensitivity index)” value is recorded as 0.8 ± 0.1.

On to `N#CC[Se]C(=O)c1ccc(F)c(Cl)c1` [N6], for which, in the test with HOC/ADR, the “increase of the IC50 of Adriamycin” value is “almost threefold” and the Fold change entry is “(0.4 ± 0.0)×”. The IC50 in test [2] (Homo sapiens, A2780, 72 h) was determined as 2400 ± 200 nM. Besides, the “SI HEK293/HOC” value in test [2] amounted to 2.1 ± 0.2. In test [3], the IC50 was 1700 nM and the “SI HEK293/MCF-7” value stood at 2.9 ± 0.1. The same compound displayed an IC50 in test [4] of 4900 ± 100 nM. Moreover, in test [5], the IC50 was found to be 1900 ± 100 nM, the “SI HEK293/MC7-7/PAX” value came to 2.6 ± 0.1 and the “CS (collateral sensitivity index)” value worked out at 0.9 ± 0.0. In test [6], the IC10 was 2600 nM, the IC50 amounted to 3600 nM, the “SI HEK293/HOC/ADR” value is recorded as 1.4 ± 0.0 and the “CS (collateral sensitivity index)” value was 0.7 ± 0.1.

Regarding `C[S+](C)[O-]` [DMSO (5% V/V), dimethyl sulfoxide, reference compound], in the test on HOC, the “ROS(+) cells” value amounted to 68.7 ± 1.9 % and the “ROS(−) cells” value is 31.8 ± 2.3 %.

With `N#CC[Se]C(=O)c1cccs1` [N1], in the test on HOC/ADR, the “increase of the IC50 of Adriamycin” value is on record as 3.5 fold and the Fold change result is “(0.3 ± 0.1)×”. For the same compound, the IC50 in test [2] (Homo sapiens, A2780, 72 h) was found to be 2700 ± 300 nM. Also, the “SI HEK293/HOC” value in test [2] is on record as 2.2 ± 0.4. In test [3], the IC50 amounted to 3100 ± 200 nM and the “SI HEK293/MCF-7” value was determined as 2.0 ± 0.3. In test [4], this compound showed an IC50 of 6000 ± 600 nM. In test [5], the “collateral sensitivity against paclitaxel-resistant breast carcinoma (in words)” value is recorded as “slight collateral sensitivity”, the IC50 is 2500 nM, the “SI HEK293/MC7-7/PAX” value is listed as 2.4 ± 0.4 and the “CS (collateral sensitivity index)” value was determined as 1.2 ± 0.2. In addition, in test [6], the IC10 worked out at 2500 nM, the IC50 was determined as 4200 ± 200 nM, the “SI HEK293/HOC/ADR” value is listed as 1.4 ± 0.2 and the “CS (collateral sensitivity index)” value was 0.7 ± 0.1.
